Here are results for two compounds from patent US10548937B2, “Composition for the treatment of arthropathies and osteoarthritis” (Kolinpharma S.p.A., priority 2014, dated 2020).

Type in all cases: cell-based
Data set [1] concerns TNFα production by human chondrocytes. Put plainly: ELISA test (Test 1a), TNFα in culture medium. The procedure: (§1) Human chondrocytes (Lonza, cat. N. CC-2550) derived from knee tissue were cultured in Chondrocyte Growth Medium (Lonza, cat. N. CC-3216) prepared according to the manufacturer's instructions with the addition of R3-insulin-like growth factor-1 [R3-IGF-1], human recombinant fibroblast growth factor beta [hrFGF-β], transferrin, insulin, foetal bovine serum [FBS] and gentamicin/amphotericin-B [GA]. The cells were maintained in an incubator at 37° C. and 5% CO2 and seeded every 3-4 days at a density of about 1×10^4 cells/cm^2.
(§2) After about 16-20 hours of incubation, the cells were processed for the various tests.
In the “sandwich” ELISA test, a 96-well plate is covered with a monoclonal antibody specific for a given cytokine. […] The addition of a sulfuric acid solution changes the colour of the solution from blue to yellow, blocking the development of the colour and allowing accurate reading of the absorbance of the samples at 450 nm.
For the purposes of the treatment, the medium was harvested and stored at −80° C. until the time of use for the test. […] The concentrations of cytokines released into the culture medium were then expressed as pg of cytokine/mg of total protein of the sample. […]
Release into the culture medium of the pro-inflammatory cytokines TNFα, IL-6 and IL-8 by the human chondrocytes was evaluated both in the absence and in the presence of stimulation with IL-1β for 16 hours. […]

The subject of data set [2] is nuclear translocation of NF-kB in human chondrocytes. The data set is described as follows: Nuclear translocation of NF-kB (Test 1b), immunolabelling and confocal microscope. Particulars: IL-1β about 20 hours. On the procedure: as §1, §2
The chondrocytes were seeded onto 13 mm glass slides and, once they had reached confluence, were incubated overnight with the various treatments. […]
Images of the samples thus prepared were acquired on a confocal microscope (TCS SPE UV, Leica Microsystems) and were analysed with the software ImageJ v1.47h (http://imagej.nih.gov/ij) for the quantification of the nuclear translocation of NF-kB (Noursadeghi M et al., Journal of Immunological Methods, 2008, vol. 329, pages 194-200). […] These masks were then applied to the original NF-kB signals to calculate the fluorescence intensity in the nucleus and in the cytoplasm from the histograms of the intensities created with ImageJ. The mean fluorescence intensity ratio between the nucleus and the cytoplasm was then calculated for each sample.

The next data set deals with human chondrocytes. Put plainly: MTT test (Test 0), cell vitality. Particulars: overnight incubation, 'likewise' = did not prove toxic. On the procedure: as §1, §2
This colorimetric test is based on the transformation of the tetrazolium salt MTT (yellow) into formazan (violet), by the succinate-tetrazolium reductase system, which belongs to the mitochondrial respiratory chain and is active only in metabolically active cells. […] An insoluble colorant forms during this period, which, after dissolving by adding dissolution solution to the samples (10% SDS in 10 mM HCl) and after incubating overnight in an incubator, may be quantified by reading the absorbance of the samples at 595 nm (using 750 nm as reference wavelength). The measured absorbance correlates directly with the number of live cells.
To exclude a possible toxic effect attributable to the chosen incubation protocol, the cell vitality was quantified by means of an MTT test. […]

In the case of `Cc1ccc(-c2cc(C(F)(F)F)nn2-c2ccc(S(N)(=O)=O)cc2)cc1` [celecoxib], the “effect on the production of TNFα” value in data set [1] (10 μM in the culture medium) was “no effect”. In data set [2] (celecoxib 10 μM), the “effect on the translocation of NF-kB to the nucleus” value is given as “no significant effect”. In the data set on human chondrocytes (10 μM), the “toxicity to chondrocytes (MTT, cell vitality)” value is recorded as “likewise for the incubation with the positive controls”.

Turning to `O=C(O)Cc1ccccc1Nc1c(Cl)cccc1Cl` [diclofenac], the “effect on the production of TNFα” value in data set [1] (100 μM in the culture medium) is “no effect”. In addition, the “effect on the translocation of NF-kB to the nucleus” value in data set [2] (diclofenac 100 μM) is given as “no significant effect”. Besides, the “toxicity to chondrocytes (MTT, cell vitality)” value in the data set with human chondrocytes (100 μM) was “likewise for the incubation with the positive controls”.
